This note sets out measurements from patent US10633419B2, “Immunomodulators” (BRISTOL-MYERS SQUIBB COMPANY, priority 2014, dated 2020).

Starred links: 1 amine or outer side, 2 acyl side, 3 side chain; linkers in the order of their positions; H or OH if unused. Positions of bridges follow the written chain, without caps; N, C: chain ends. Non-standard residues stand in square brackets, D forms with d. Residues, ends and D or L forms follow the SMILES beside them. *: point of attachment. Dap(Nα-HOOC(CH2)16CO)OH = O=C(O)CCCCCCCCCCCCCCCCC(=O)N[C@@H](CN*)C(=O)O; X11 = O=C(O)CCCCCCCCCCCCC(=O)N[C@@H](CCC(=O)NCCCOCCOCCOCCCN*)C(=O)O; Trp(1-CH2COOH) = N[C@@H](Cc1cn(CC(=O)O)c2ccccc12)C(=O)O; X24 = O=C(C[C@@H](Cc1ccc(O)cc1)C(=O)[*:1])C[*:2]; NH(CH2)14COOH = O=C(O)CCCCCCCCCCCCCCN*; PEG6 = NCCOCCOCCOCCOCCOCCOCCC(=O)O; Hyp = O=C(O)[C@@H]1C[C@@H](O)CN1; Undecanoyl = CCCCCCCCCCC(=O)*; NMeNle = CCCC[C@H](NC)C(=O)O; NMeA = CN[C@@H](C)C(=O)O; Dab = NCC[C@H](N)C(=O)O; Dap = NC[C@H](N)C(=O)O

As a reminder, the IC50 is the concentration that inhibits the measured activity by half.

The target of this experiment is T1, PD-L1 (Homo sapiens, UniProt Q9NZQ7).
T1 construct: hPDL1(19-239)-TVMV-His; made in house; host or cells: HEK293T
T1 sequence (Q9NZQ7 with tags, fused parts or gaps): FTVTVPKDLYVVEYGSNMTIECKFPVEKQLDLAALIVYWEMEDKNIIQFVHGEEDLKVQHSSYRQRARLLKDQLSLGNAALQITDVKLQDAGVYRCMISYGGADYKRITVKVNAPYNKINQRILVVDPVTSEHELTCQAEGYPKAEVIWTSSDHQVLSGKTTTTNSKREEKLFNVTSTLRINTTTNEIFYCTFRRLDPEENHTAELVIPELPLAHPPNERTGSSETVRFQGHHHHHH
Briefly: PD-1/PD-L1 Homogenous Time-Resolved Fluorescence (HTRF) binding assay (PD-1-Ig/PD-L1-His). The settings on record: inhibition of PD-1-Ig binding to PD-L1-TVMV-His; value given as range class; read-out: HTRF IC50. A digest of the protocol:
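Inhibitors pre-incubated 15 min with PD-L1-His (10 nM final), then PD-1-Ig (20 nM final) added for 15 min in dPBS/0.1% BSA/0.05% Tween-20. Eu-cryptate anti-Ig (1 nM) and APC anti-His (20 nM) added, 30 min equilibration, 665/620 nm HTRF ratio read.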
On to `CCCCCCCCCCCCCCCC(=O)N[C@@H](CCn1cc(C[C@H](NC(=O)CNC(=O)[C@@H]2CSCC(=O)N[C@@H](Cc3ccc(O)cc3)C(=O)N(C)[C@@H](C)C(=O)N[C@@H](CC(=O)O)C(=O)N3CCC[C@H]3C(=O)N[C@@H](Cc3c[nH]cn3)C(=O)N[C@@H](CCCCN)C(=O)N3C[C@H](O)C[C@H]3C(=O)N[C@@H](Cc3c[nH]c4ccccc34)C(=O)N[C@@H](CCCCN)C(=O)N[C@@H](Cc3c[nH]c4ccccc34)C(=O)N(C)[C@@H](CCCC)C(=O)N(C)[C@@H](CCCC)C(=O)N[C@@H](CCC(=O)O)C(=O)N2)C(=O)NCC(N)=O)nn1)C(=O)O` [Example 14059], for which the IC50 lay in the range of 10 to 99 nM. In the case of `CCCC[C@H]1C(=O)N(C)[C@@H](CCCC)C(=O)N[C@@H](CC(C)C)C(=O)N[C@H](C(=O)NCC(=O)N[C@H](CC(=O)O)C(=O)NCCCCCCCCCCCCCCC(=O)O)CSCC(=O)N[C@@H](Cc2ccc(O)cc2)C(=O)N(C)[C@@H](C)C(=O)N[C@@H](CC(N)=O)C(=O)N2CCC[C@H]2C(=O)N[C@@H](CN)C(=O)N[C@@H](CC(C)C)C(=O)N2C[C@H](O)C[C@H]2C(=O)N[C@@H](Cc2c[nH]c3ccccc23)C(=O)N[C@@H](CCN)C(=O)N[C@@H](Cc2cn(CC(=O)O)c3ccccc23)C(=O)N1C` [Example 11195] ({CH2CO}-Y[NMeA]NP[Dap]L[Hyp]W[Dab][Trp(1-CH2COOH)][NMeNle][NMeNle]LCG[dD]-{NH(CH2)14COOH}; thioether N-14), the IC50 lay within 10 to 99 nM. Then `CCCC[C@H]1C(=O)N(C)[C@@H](CCCC)C(=O)N[C@@H](CC(C)C)C(=O)N[C@H](C(=O)NCC(=O)NCCCOCCOCCOCCCNC(=O)CC[C@H](NC(=O)CCCCCCCCCCCCC(=O)O)C(=O)O)CSCC(=O)N[C@@H](Cc2ccc(O)cc2)C(=O)N(C)[C@@H](C)C(=O)N[C@@H](CC(N)=O)C(=O)N2CCC[C@H]2C(=O)N[C@@H](CN)C(=O)N[C@@H](CC(C)C)C(=O)N2C[C@H](O)C[C@H]2C(=O)N[C@@H](Cc2c[nH]c3ccccc23)C(=O)N[C@@H](CCN)C(=O)N[C@@H](Cc2cn(CC(=O)O)c3ccccc23)C(=O)N1C` [Example 11260] ({CH2CO}-Y[NMeA]NP[Dap]L[Hyp]W[Dab][Trp(1-CH2COOH)][NMeNle][NMeNle]LCG-X11; thioether N-14), with 0.3 to 9.9 nM; and `CCCC[C@H]1C(=O)N(C)[C@@H](CCCC)C(=O)N[C@@H](CC(C)C)C(=O)N[C@H](C(=O)NCC(=O)N[C@@H](CC(=O)NC[C@H](NC(=O)CCCCCCCCCCCCCCCCC(=O)O)C(=O)O)C(=O)O)CSCC(=O)N[C@@H](Cc2ccc(O)cc2)C(=O)N(C)[C@@H](C)C(=O)N[C@@H](CC(N)=O)C(=O)N2CCC[C@H]2C(=O)N[C@@H](CN)C(=O)N[C@@H](CC(C)C)C(=O)N2C[C@H](O)C[C@H]2C(=O)N[C@@H](Cc2c[nH]c3ccccc23)C(=O)N[C@@H](CCN)C(=O)N[C@@H](Cc2cn(CC(=O)O)c3ccccc23)C(=O)N1C` [Example 11172] ({CH2CO}-Y[NMeA]NP[Dap]L[Hyp]W[Dab][Trp(1-CH2COOH)][NMeNle][NMeNle]LCGD(Dap(Nα-HOOC(CH2)16CO)OH)-OH; thioether N-14), with 10 to 99 nM. Then `CCCCCCCCCCC(=O)NCCCC[C@H](NC(=O)CCOCCOCCOCCOCCOCCOCCNC(=O)[C@@H]1CSCC(=O)C[C@@H](Cc2ccc(O)cc2)C(=O)N(C)[C@@H](C)C(=O)N[C@@H](CC(N)=O)C(=O)N2CCC[C@H]2C(=O)N[C@@H](Cc2cnc[nH]2)C(=O)N[C@@H](CCC(=O)O)C(=O)N2C[C@H](O)C[C@H]2C(=O)N[C@@H](Cc2c[nH]c3ccccc23)C(=O)N[C@@H](CCN)C(=O)N[C@@H](Cc2cn(CC(=O)O)c3ccccc23)C(=O)N(C)[C@@H](CCCC)C(=O)N(C)[C@@H](CCCC)C(=O)N[C@@H](CC(C)C)C(=O)N1)C(N)=O` [Example 11012] ([NMeA]NPHE[Hyp]W[Dab][Trp(1-CH2COOH)][NMeNle][NMeNle]LC[PEG6]K(Undecanoyl)-NH2; linker N-13 via X24), with 10 to 99 nM; and `CCCCCCCCCCC(=O)NCCCC[C@H](NC(=O)CNC(=O)[C@@H]1CSCC(=O)N[C@@H](Cc2ccc(O)cc2)C(=O)N(C)[C@@H](C)C(=O)N[C@@H](CC(N)=O)C(=O)N2CCC[C@H]2C(=O)N[C@@H](Cc2cnc[nH]2)C(=O)N[C@@H](CCC(=O)O)C(=O)N2C[C@H](O)C[C@H]2C(=O)N[C@@H](Cc2c[nH]c3ccccc23)C(=O)N[C@@H](CCN)C(=O)N[C@@H](Cc2c[nH]c3ccccc23)C(=O)N(C)[C@@H](CCCC)C(=O)N(C)[C@@H](CCCC)C(=O)N[C@@H](CCN)C(=O)N1)C(N)=O` [Example 11007] ({CH2CO}-Y[NMeA]NPHE[Hyp]W[Dab]W[NMeNle][NMeNle][Dab]CGK(Undecanoyl)-NH2; thioether N-14), with 10 to 99 nM.
